For data set [1] the following is noted: humans, oral; cited from earlier work.
The test system of data set [2] is Cln3^Δex7-8 and WT mice. Nature of the data set: Auditory brainstem response (ABR) measurements. Format: in vivo, mouse. The settings on record: 10-month-old mice, both genotypes, vs untreated age-matched controls. The method, then: ABRs were measured as previously described^69. Briefly, 10-month-old mice (n=4-6 per genotype/treatment group) were anaesthetized using an intraperitoneal injection of ketamine (100 mg/kg) and xylazine (10 mg/kg) and then immobilized in a head holder. Normal body temperature was maintained throughout the procedure by placing the mice on a heating pad. Pure tone stimuli from 4 to 48 kHz were generated using Tucker-Davis Technologies System 3 digital signal processing hardware and software (Tucker-Davis Technologies, Alachua, Fla., USA), and the intensity of the tone stimuli was calibrated using a type 4,938 ¼″ pressure-field calibration microphone (Bruel and Kjar, Nrum, Denmark). Response signals were recorded with subcutaneous needle electrodes inserted at the vertex of the scalp, the postauricular region and the back leg (ground)^69. Auditory thresholds were determined by decreasing the sound intensity of each stimulus from 90 to 10 dB in 5 dB steps, until the lowest sound intensity with reproducible and recognizable waves in the response was reached. Mean hearing thresholds±s.d. (dB SPL) were plotted as a function of stimulus frequency (kHz). Statistical analysis consisted of one-way analyses of variance to reveal overall trends accompanied by two-tailed Student's t-tests at individual frequencies to evaluate frequency-specific effects. […]

Data set [3] concerns HeLa cells. The experiment in a line: Autophagic flux in HeLa cells (LAMP1, p62, LC3 markers). Format: cell-based, human. Particulars: time course. As to the method:
(§1) FIG. 14. Akt phosphorylates TFEB at Ser467. […] Dashed boxes (upper row) show the location of the higher power inserts (lower row). (b) Subcellular fractionation of HeLa/TFEB cells incubated with the same kinase inhibitors. (c) Multi-alignment of TFEB amino-acid sequences from the following species: Ac, Anolis carolensis; Bt, Bos taurus; Dr, Danio rerio; Fc, Felix catus; Gg, gallus gallus; Hs, Homo sapiens; La, Loxodonta africana; Mm, Mus musculus; Rn, Rattus Norvegicus; Sh, Sarcophilus harrisii; Sp, Strongylocentrotus purpuratus; XI, Xenopus laevis. A consensus logo of Akt phosphorylation sites (generated at weblogo.berkeley.edu/logo.cgi) is aligned with TFEB sequences. Position 467 refers to the human protein sequence. (d) Subcellular localization of TFEB and TFEB(S467A). (e) Expression analysis of lysosomal and autophagy genes in HeLa cells transfected with TFEB or TFEB(S467A). […]
(§2) Brain tissue and cultured cells were collected and lysed in RIPA buffer (50 mM Tris-HCl, ph 7.4, 1% NP40, 0.5% Na-deoxycholate, 0.1% SDS, 150 mM NaCl, 2 mM EDTA and 50 mM NaF) including a cocktail of protease (Roche) and phosphatase (SIGMA) inhibitors. Protein concentrations were measured with the bicinchoninic acid protein assay kit (Pierce, Rockford, Ill.), using bovine serum albumin as standard. […] Western blot images were acquired by LAS 4000 (GE Healthcare) and quantified using ImageJ. […]

The test system of data set [4] is CLEAR genes. Nature of the data set: Real-time qPCR of CLEAR genes in control and JNCL fibroblasts. Particulars: treated versus untreated. It counts as cell-based, human. As to the method: Control (Coriell Institute, USA) and JNCL fibroblasts (Gaslini Institute, Italy) were grown in DMEM (1:1, HyClone) supplemented with 10% heat-inactivated fetal bovine serum (FBS, Atlanta Biologicals), 2 mM L-glutamine, 100 U/ml penicillin and […] streptomycin (Invitrogen). HeLa cells were incubated for 2 h with LY294002 ([…], Cell Signaling), Torin 1 (300 nM, Cayman Chemical) or for 24 h with trehalose (100 mM, Sigma), rapamycin (300 nM, Sigma), MK2206 (1 μM, Selleckchem), U0126 ([…], Tocris) and dialyzed serum (GE Healthcare Life Sciences) for 30 min.
(§3) Total RNA was extracted from the control and JNCL fibroblasts and from WT and Cln3^Δex7-8 cortical neuron cultures using the RNEasy kit (Qiagen) according to the manufacturer's instructions. Half of the mouse brain was processed for the RNA extraction and one microgram was used for complementary DNA synthesis by QuantiTect Reverse Transcription kit (Qiagen). The primers for PCR with reverse transcription reactions are listed in Table St Quantitative real-time PCR was performed by using iQ SYBR Green Supermix on the CFX96 Touch Real-Time Detection System (Bio-Rad Laboratories). […] Relative gene expression was determined using the ΔΔCT method, normalizing to GAPDH (for human genes) and cyclophilin (for mouse genes). […]

Data set [5] concerns Akt. Nature of the data set: Akt activity in HeLa cells, time course immunoblot. Format: cell-based, human. As to the method: as §1, §2
In general terms: A western blot detects proteins with antibodies after separation by electrophoresis.

The test system of data set [6] is lysosomal and autophagy genes. Nature of the data set: Expression analysis of lysosomal and autophagy genes in HeLa cells. Particulars: HeLa cells treated with MK2206. It counts as cell-based, human. As to the method:
FIG. 24. […] (b) Immunoblot analysis of LC3 lipidation. […] (d) Expression analysis of lysosomal and autophagy genes in HeLa cells treated with MK2206. Gene expression was normalized relative to the housekeeping gene, GAPDH. The dashed line indicates relative gene expression in untreated cells. […] Scale bar, 10 μm (a), 50 nm (c) and 20 μm (f).
Control (Coriell Institute, USA) and JNCL fibroblasts (Gaslini Institute, Italy) were grown in DMEM (1:1, HyClone) supplemented with 10% heat-inactivated fetal bovine serum (FBS, Atlanta Biologicals), 2 mM L-glutamine, 100 U/ml penicillin and […] streptomycin (Invitrogen). […]
as §3

Regarding `OC[C@H]1O[C@H](O[C@H]2O[C@H](CO)[C@@H](O)[C@H](O)[C@H]2O)[C@H](O)[C@@H](O)[C@@H]1O` [trehalose, a-D-glucopyranosyl a-D-glucopyranoside], the “ingested trehalose absorbed into the blood stream” value in data set [1] is listed as “Less than 0.5%”. The ABR thresholds result in data set [2] is on record as “lower ABR thresholds”. The autophagic flux result in data set [3] is recorded as “increasing autophagic flux”. The “expression of CLEAR genes” value in data set [4] was “increased expression of tested CLEAR genes”. Besides, the Akt activity result in data set [5] is listed as “inhibited Akt activity”.

Regarding `Cl.NC1(c2ccc(-c3nc4ccn5c(=O)[nH]nc5c4cc3-c3ccccc3)cc2)CCC1` [MK2206, 8-[4-(1-aminocyclobutyl)phenyl]-9-phenyl-1,2,4-triazolo[3,4-f][1,6]naphthyridin-3(2H)-one], the “expression of lysosomal and autophagy genes” value in data set [6] was “upregulated the expression of lysosomal and autophagy genes”.

The record behind these values is patent US10512656B2, “Compositions and methods for the treatment of lysosomal storage disorders and disorders characterized by lysosomal dysfunction” (Baylor College of Medicine, priority 2016, dated 2019).
